The values that follow come from patent US8530489B2 (Vertex Pharmaceuticals Incorporated, priority 2006, dated 2013).

The assay deals with PLK1 (Homo sapiens, UniProt P53350). Briefly: PLK1 Inhibition Assay I (radioactive-phosphate incorporation). It is filed as biochemical. The following applies: Ki(app); PLK1 Inhibition Assay I or II (table does not say which). An outline of the steps: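 Ki(app) values came from non-linear regression of initial rates after background subtraction, with phosphopeptide measured by phosphocellulose filter binding and scintillation counting. PLK1 at 2 nM was preincubated with compound (typically from 10 μM, 2-fold dilutions) for 10 min, then run 240 min at 25° C with 350 μM [γ-33P]ATP and 450 μM peptide substrate in HEPES pH 7.5 buffer.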
PLK1, sequence (P53350 whole entry): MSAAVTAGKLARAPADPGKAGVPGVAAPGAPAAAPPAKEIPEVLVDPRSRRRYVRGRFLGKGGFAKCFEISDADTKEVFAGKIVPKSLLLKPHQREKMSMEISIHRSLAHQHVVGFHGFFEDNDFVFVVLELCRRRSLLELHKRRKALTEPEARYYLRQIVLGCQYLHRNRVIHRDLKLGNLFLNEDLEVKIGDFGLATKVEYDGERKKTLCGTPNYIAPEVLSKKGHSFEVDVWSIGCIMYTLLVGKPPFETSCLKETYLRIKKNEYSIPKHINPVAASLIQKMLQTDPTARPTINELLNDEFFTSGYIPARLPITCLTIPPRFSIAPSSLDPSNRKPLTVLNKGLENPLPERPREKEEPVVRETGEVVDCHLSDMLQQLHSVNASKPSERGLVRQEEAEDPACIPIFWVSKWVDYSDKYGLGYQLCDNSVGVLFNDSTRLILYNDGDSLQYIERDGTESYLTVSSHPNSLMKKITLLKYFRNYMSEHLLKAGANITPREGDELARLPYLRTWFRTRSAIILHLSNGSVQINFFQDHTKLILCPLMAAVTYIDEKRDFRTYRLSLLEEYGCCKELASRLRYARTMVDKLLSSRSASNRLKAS

For `CC(C)[C@@H](N)CC(=O)N1CCC([C@@H](C)Nc2ncc(C#N)c(-c3c[nH]c4ncc(C(F)(F)F)cc34)n2)CC1` [Compound I-247, 2-((R)-1-(1-((S)-3-amino-4-methylpentanoyl)piperidin-4-yl)ethylamino)-4-(5-(trifluoromethyl)-1H-pyrrolo[2,3-b]pyridin-3-yl)pyrimidine-5-carbonitrile], the Ki is under 3 nM. For `C[C@@H](Nc1ncc(C#N)c(-c2c[nH]c3ncc(C(F)(F)F)cc23)n1)C1CCN(C(=O)[C@H](N)c2ccccc2)CC1` [Compound I-248, 2-((R)-1-(1-((R)-2-amino-2-phenylacetyl)piperidin-4-yl)ethylamino)-4-(5-(trifluoromethyl)-1H-pyrrolo[2,3-b]pyridin-3-yl)pyrimidine-5-carbonitrile] the value was 3 to 40 nM; for `C[C@H](O)[C@@H](N)C(=O)N1CCC([C@@H](C)Nc2ncc(C#N)c(-c3c[nH]c4ncc(C(F)(F)F)cc34)n2)CC1` [Compound I-249, 2-((R)-1-(1-((2R,3S)-2-amino-3-hydroxybutanoyl)piperidin-4-yl)ethylamino)-4-(5-(trifluoromethyl)-1H-pyrrolo[2,3-b]pyridin-3-yl)pyrimidine-5-carbonitrile], under 3 nM. For `C[C@@H](Nc1ncc(C#N)c(-c2c[nH]c3ncc(C(F)(F)F)cc23)n1)C1CCN(C(=O)[C@H](N)CC(N)=O)CC1` [Compound I-250, (3R)-3-amino-4-(4-((1R)-1-(5-cyano-4-(5-(trifluoromethyl)-1H-pyrrolo[2,3-b]pyridin-3-yl)pyrimidin-2-ylamino)ethyl)piperidin-1-yl)-4-oxobutanamide] the value was under 3 nM; for `C[C@@H](Nc1ncc(C#N)c(-c2c[nH]c3ncc(C(F)(F)F)cc23)n1)C1CCN(C(=O)[C@H](N)CC#N)CC1` [Compound I-251, 2-((R)-1-(1-((R)-2-amino-3-cyanopropanoyl)piperidin-4-yl)ethylamino)-4-(5-(trifluoromethyl)-1H-pyrrolo[2,3-b]pyridin-3-yl)pyrimidine-5-carbonitrile], under 3 nM. For `C[C@@H](Nc1ncc(C#N)c(-c2c[nH]c3ncc(C(F)(F)F)cc23)n1)C1CCN(C(=O)[C@H](N)CCCN)CC1` [Compound I-252, 2-((R)-1-(1-((R)-2,5-diaminopentanoyl)piperidin-4-yl)ethylamino)-4-(5-(trifluoromethyl)-1H-pyrrolo[2,3-b]pyridin-3-yl)pyrimidine-5-carbonitrile] the value was 3 to 40 nM. `C[C@@H](Nc1ncc(C#N)c(-c2c[nH]c3ncc(C(F)(F)F)cc23)n1)C1CCN(C(=O)[C@H]2C[C@@H](N)C2)CC1` [Compound I-253, 2-((R)-1-(1-((1s,3S)-3-aminocyclobutanecarbonyl)piperidin-4-yl)ethylamino)-4-(5-(trifluoromethyl)-1H-pyrrolo[2,3-b]pyridin-3-yl)pyrimidine-5-carbonitrile]: the Ki is under 3 nM. As for `C[C@@H](Nc1ncc(C#N)c(-c2c[nH]c3ncc(C(F)(F)F)cc23)n1)C1CCN(C(=O)[C@@H](N)CCCN)CC1` [Compound I-254, 2-((R)-1-(1-((S)-2,5-diaminopentanoyl)piperidin-4-yl)ethylamino)-4-(5-(trifluoromethyl)-1H-pyrrolo[2,3-b]pyridin-3-yl)pyrimidine-5-carbonitrile], the Ki is under 3 nM. Take `C[C@@H](Nc1ncc(C#N)c(-c2c[nH]c3ncc(C(F)(F)F)cc23)n1)C1CCN(C(=O)[C@@H](N)CC#N)CC1` [Compound I-255, 2-((R)-1-(1-((S)-2-amino-3-cyanopropanoyl)piperidin-4-yl)ethylamino)-4-(5-(trifluoromethyl)-1H-pyrrolo[2,3-b]pyridin-3-yl)pyrimidine-5-carbonitrile]: the Ki was under 3 nM. As to `CC(C)[C@@H](O)C(=O)N1CCC([C@@H](C)Nc2ncc(C#N)c(-c3c[nH]c4ncc(C(F)(F)F)cc34)n2)CC1` [Compound I-256, 2-((R)-1-(1-((R)-2-hydroxy-3-methylbutanoyl)piperidin-4-yl)ethylamino)-4-(5-(trifluoromethyl)-1H-pyrrolo[2,3-b]pyridin-3-yl)pyrimidine-5-carbonitrile], the Ki is under 3 nM.

As for `C[C@@H](Nc1ncc(C#N)c(-c2c[nH]c3ncc(C(F)(F)F)cc23)n1)C1CCN(C(=O)C(O)CO)CC1` (stereo partly drawn) [Compound I-257, 2-((1R)-1-(1-(2,3-dihydroxypropanoyl)piperidin-4-yl)ethylamino)-4-(5-(trifluoromethyl)-1H-pyrrolo[2,3-b]pyridin-3-yl)pyrimidine-5-carbonitrile], the Ki is under 3 nM. For `C[C@@H](Nc1ncc(C#N)c(-c2c[nH]c3ncc(C(F)(F)F)cc23)n1)C1CCN(C(=O)C(N)=O)CC1` [Compound I-258, 2-(4-((1R)-1-(5-cyano-4-(5-(trifluoromethyl)-1H-pyrrolo[2,3-b]pyridin-3-yl)pyrimidin-2-ylamino)ethyl)piperidin-1-yl)-2-oxoacetamide] the value was under 3 nM; for `C[C@@H](Nc1ncc(C#N)c(-c2c[nH]c3ncc(C(F)(F)F)cc23)n1)C1CCN(C(=O)[C@H]2CCN2)CC1` [Compound I-259, 2-((R)-1-(1-((R)-azetidine-2-carbonyl)piperidin-4-yl)ethylamino)-4-(5-(trifluoromethyl)-1H-pyrrolo[2,3-b]pyridin-3-yl)pyrimidine-5-carbonitrile], under 3 nM; for `C[C@@H](Nc1ncc(C#N)c(-c2c[nH]c3ncc(C(F)(F)F)cc23)n1)C1CCN(C(=O)C(O)CN)CC1` (stereo partly drawn) [Compound I-260, 2-((1R)-1-(1-(3-amino-2-hydroxypropanoyl)piperidin-4-yl)ethylamino)-4-(5-(trifluoromethyl)-1H-pyrrolo[2,3-b]pyridin-3-yl)pyrimidine-5-carbonitrile], under 3 nM. In the case of `C[C@@H](Nc1ncc(C#N)c(-c2c[nH]c3ncc(C(F)(F)F)cc23)n1)[C@H]1CC[C@H](N2CCN(C)CC2)CC1` [Compound I-261, 2-((R)-1-((1r,4R)-4-(4-methylpiperazin-1-yl)cyclohexyl)ethylamino)-4-(5-(trifluoromethyl)-1H-pyrrolo[2,3-b]pyridin-3-yl)pyrimidine-5-carbonitrile], the Ki is under 3 nM. For `C[C@@H](Nc1ncc(C#N)c(-c2c[nH]c3ncc(C(F)(F)F)cc23)n1)C1CCN(C(=O)[C@H]2C[C@@H](O)CN2)CC1` [Compound I-262, 2-((R)-1-(1-((2R,4R)-4-hydroxypyrrolidine-2-carbonyl)piperidin-4-yl)ethylamino)-4-(5-(trifluoromethyl)-1H-pyrrolo[2,3-b]pyridin-3-yl)pyrimidine-5-carbonitrile] the value was under 3 nM; for `C[C@@H](Nc1ncc(C#N)c(-c2c[nH]c3ncc(C(F)(F)F)cc23)n1)C1CCN(C(=O)[C@H]2C[C@H](O)CN2)CC1` [Compound I-263, 2-((R)-1-(1-((2R,4S)-4-hydroxypyrrolidine-2-carbonyl)piperidin-4-yl)ethylamino)-4-(5-(trifluoromethyl)-1H-pyrrolo[2,3-b]pyridin-3-yl)pyrimidine-5-carbonitrile], under 3 nM. For `C[C@@H](Nc1ncc(C#N)c(-c2c[nH]c3ncc(C(F)(F)F)cc23)n1)[C@H]1CC[C@H](NC(=O)CN)CC1` [Compound I-264, 2-amino-N-((1R,4r)-4-((1R)-1-(5-cyano-4-(5-(trifluoromethyl)-1H-pyrrolo[2,3-b]pyridin-3-yl)pyrimidin-2-ylamino)ethyl)cyclohexyl)acetamide] the value was under 3 nM; for `C[C@@H](O)C(=O)N[C@H]1CC[C@H]([C@@H](C)Nc2ncc(C#N)c(-c3c[nH]c4ncc(C(F)(F)F)cc34)n2)CC1` [Compound I-265, Trans-(2R)—N-(4-((1R)-1-(5-cyano-4-(5-(trifluoromethyl)-1H-pyrrolo[2,3-b]pyridin-3-yl)pyrimidin-2-ylamino)ethyl)cyclohexyl)-2-hydroxypropanamide], under 3 nM.

On to `CC(Nc1ncc(C#N)c(-c2c[nH]c3ncc(C(F)(F)F)cc23)n1)c1ccc(C2(O)CCN(C)CC2)nc1` (stereo not shown) [Compound I-266, 2-(1-(6-(4-hydroxy-1-methylpiperidin-4-yl)pyridin-3-yl)ethylamino)-4-(5-(trifluoromethyl)-1H-pyrrolo[2,3-b]pyridin-3-yl)pyrimidine-5-carbonitrile], for which the Ki was under 3 nM.

In the case of `CC(Nc1ncc(C#N)c(-c2c[nH]c3ncc(C(F)(F)F)cc23)n1)[C@H]1C[C@H](O)C1` (stereo partly drawn) [Compound I-269, 2-((S)-1-((1r,3S)-3-hydroxycyclobutyl)ethylamino)-4-(5-(trifluoromethyl)-1H-pyrrolo[2,3-b]pyridin-3-yl)pyrimidine-5-carbonitrile], the Ki is 3 to 40 nM. The value for `CC(Nc1ncc(C#N)c(-c2c[nH]c3ncc(C(F)(F)F)cc23)n1)[C@H]1C[C@@H](O)C1` (stereo partly drawn) [Compound I-270, 2-((S)-1-((1s,3R)-3-hydroxycyclobutyl)ethylamino)-4-(5-(trifluoromethyl)-1H-pyrrolo[2,3-b]pyridin-3-yl)pyrimidine-5-carbonitrile] was under 3 nM; that for `CC(Nc1ncc(C#N)c(-c2c[nH]c3ncc(C(F)(F)F)cc23)n1)c1ccc(O[C@@H]2CCN(C)C2)nc1` (stereo partly drawn) [Compound I-271, 2-(1-(6-((R)-1-methylpyrrolidin-3-yloxy)pyridin-3-yl)ethylamino)-4-(5-(trifluoromethyl)-1H-pyrrolo[2,3-b]pyridin-3-yl)pyrimidine-5-carbonitrile] was 3 to 40 nM; that for `C[C@@H](Nc1ncc(C#N)c(-c2c[nH]c3ncc(C(F)(F)F)cc23)n1)c1ccc(N[C@H]2CCN(C)C2)nc1` [Compound I-280, 2-(1-(6-((S)-1-methylpyrrolidin-3-ylamino)pyridin-3-yl)ethylamino)-4-(5-(trifluoromethyl)-1H-pyrrolo[2,3-b]pyridin-3-yl)pyrimidine-5-carbonitrile] was 3 to 40 nM.

For `C[C@@H](Nc1ncc(C#N)c(-c2c[nH]c3ncc(C(F)(F)F)cc23)n1)c1ccc(N(C)CCN(C)C)nc1` [Compound I-282, 2-((R)-1-(6-((2-(dimethylamino)ethyl)(methyl)amino)pyridin-3-yl)ethylamino)-4-(5-(trifluoromethyl)-1H-pyrrolo[2,3-b]pyridin-3-yl)pyrimidine-5-carbonitrile], the Ki was under 3 nM.
